Results reported in US20070254911A1, “Tetrahydro-Pyrazolo[3,4-c]Pyridine Cannabinoid Modulators” (priority 2006, published 2007).

Key:
[1] = target: T1, human CB2 receptor (Homo sapiens, UniProt P34972); test: Binding assay for CB2, radioligand [3H]-CP-55,940 displacement on membranes of transfected SK-N-MC cells; conditions: test concentration of 0.2 μM; human CB2 in SK-N-MC membranes; read-out: Cannabinoid CB2 Receptor Binding Inhibition (%)
T1 construct: expressed in transfected cells; host or cells: SK-N-MC cells, stably transfected with pcDNA3 CB-2 (human); semi-purified membrane pellet
T1 sequence (P34972 whole entry): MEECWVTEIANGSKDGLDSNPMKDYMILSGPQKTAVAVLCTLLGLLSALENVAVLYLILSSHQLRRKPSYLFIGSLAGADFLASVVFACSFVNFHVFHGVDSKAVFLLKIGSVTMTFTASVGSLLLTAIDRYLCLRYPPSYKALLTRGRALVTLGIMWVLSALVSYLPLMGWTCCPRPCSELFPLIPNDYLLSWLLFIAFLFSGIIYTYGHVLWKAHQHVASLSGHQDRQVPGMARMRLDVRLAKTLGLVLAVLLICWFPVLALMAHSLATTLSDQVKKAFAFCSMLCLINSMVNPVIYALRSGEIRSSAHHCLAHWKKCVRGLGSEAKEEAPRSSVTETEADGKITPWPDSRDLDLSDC
Experimental: (§1) Binding Assay for CB1 or CB2 Agonists or Inverse Agonists
(§2) The human CB1 and CB2 receptors were stably expressed in SK-N-MC cells transfected with pcDNA3 CB-1 (human) or pcDNA3 CB-2 (human). The cells were grown in T-180 cell culture flasks under standard cell culture conditions at 37° C. in a 5% CO2 atmosphere. The cells were harvested by trysinization and homogenized in a homogenization buffer (10 mM Tris, 0.2 mM MgCl2, 5 mM KCl, with protease inhibitors aprotinin, leupeptin, pepstatin A and bacitracin) and centrifuged (2000 g). The supernatant was then centrifuged in 2M sucrose (31,300 g) to produce a semi-purified membrane pellet. The pellet was resuspended in homogenization and stored at −80° C.
(§3) On the day of the assay, the pellet was thawed on ice and diluted in assay buffer (50 mM Tris-HCl, 5 mM MgCl2, 2.5 mM EDTA, 0.5 mg/mL fatty acid free bovine serum albumin, pH 7.5). The diluted membrane pellet was added with buffer, either a test compound or vehicle standard and a the radioligand [H]^3+-CP-55,940 (0.2 nM) to the wells of a 96-well polypropylene plate. Non-specific binding was measured in wells containing WIN 55,212 (10 uM). The plate was covered and incubated for 90 minutes at 30° C. The contents were then aspirated onto a Packard Unifilter GF/C filter bottom plate prewet with 0.5% polyethyleneimine. The wells of the polypropylene plate were rinsed and aspirated seven times with a 0.9% saline-0.5% Tween 20 solution. The Unifilter plate was dried, a scintillation cocktail was added to each well and the counts representing binding were quantitated in a TopCount scintillation counter.
(§4) For compounds tested, an IC50 binding value was obtained from percent inhibition studies in which various test concentrations were used. The binding value (in μM) was calculated by linear regression.
(§5) For compounds without an IC50 binding value, the percent inhibition (%) was obtained at a test concentration of 0.2 μM.

[2] = target: T2, human CB1 receptor (Homo sapiens, UniProt P21554); test: Binding assay for CB1, radioligand [3H]-CP-55,940 displacement on membranes of transfected SK-N-MC cells; conditions: for IC50: human CB1 in SK-N-MC membranes, [3H]-CP-55,940 0.2 nM, calculated by linear regression, read-out: Cannabinoid CB1 Receptor Binding IC50
T2 construct: expressed in transfected cells; host or cells: SK-N-MC cells, stably transfected with pcDNA3 CB-1 (human); semi-purified membrane pellet
T2 sequence (P21554 whole entry): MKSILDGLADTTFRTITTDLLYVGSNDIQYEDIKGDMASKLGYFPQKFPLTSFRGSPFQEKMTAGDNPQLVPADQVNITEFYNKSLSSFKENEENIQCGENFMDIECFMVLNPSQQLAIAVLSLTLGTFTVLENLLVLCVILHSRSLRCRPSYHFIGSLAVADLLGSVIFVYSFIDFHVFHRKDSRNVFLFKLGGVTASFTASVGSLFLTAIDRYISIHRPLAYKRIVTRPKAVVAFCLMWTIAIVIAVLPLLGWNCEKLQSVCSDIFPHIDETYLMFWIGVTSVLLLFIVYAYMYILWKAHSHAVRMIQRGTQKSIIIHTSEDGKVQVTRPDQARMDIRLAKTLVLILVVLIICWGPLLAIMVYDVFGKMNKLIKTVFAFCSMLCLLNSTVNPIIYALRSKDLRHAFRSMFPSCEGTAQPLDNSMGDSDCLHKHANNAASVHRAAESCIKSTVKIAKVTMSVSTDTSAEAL
Experimental: as §1, §2, §3, §4, §5

CC(C)(C)OC(=O)N1CCc2c(C(=O)N3CCCCC3)nn(-c3ccc(Cl)cc3Cl)c2/C1=C\c1ccc(F)cc1 [Cpd 4, (7E)-1-(2,4-dichloro-phenyl)-7-(4-fluoro-benzylidene)-3-(piperidine-1-carbonyl)-1,4,5,7-tetrahydro-pyrazolo[3,4-c]pyridine-6-carboxylic acid tert-butyl ester]
inhibition at 0.2 µM [1]: 18% | inhibition at 0.2 µM ([2]; test concentration of 0.2 μM, for compounds without an IC50 binding value, read-out: Cannabinoid CB1 Receptor Binding percent inhibition): 39%

C[C@@H](NC(=O)c1nn(-c2ccc(Cl)cc2Cl)c2c1CCN(C(=O)OC(C)(C)C)/C2=C/c1ccc(F)cc1)c1ccccc1 [Cpd 1, (7E)-1-(2,4-dichloro-phenyl)-7-(4-fluoro-benzylidene)-3-[(1R)-1-phenyl-ethylcarbamoyl]-1,4,5,7-tetrahydro-pyrazolo[3,4-c]pyridine-6-carboxylic acid tert-butyl ester]
inhibition at 0.2 µM [1]: 35% | IC50 [2]: 10 nM

CC(NC(=O)c1nn(-c2ccc(Cl)cc2Cl)c2c1CCN(C(=O)OC(C)(C)C)/C2=C/c1ccc(F)cc1)c1ccccn1 (stereo not shown) [Cpd 2, (7E)-1-(2,4-dichloro-phenyl)-7-(4-fluoro-benzylidene)-3-(1-pyridin-2-yl-ethylcarbamoyl)-1,4,5,7-tetrahydro-pyrazolo[3,4-c]pyridine-6-carboxylic acid tert-butyl ester]
inhibition at 0.2 µM [1]: 13% | IC50 [2]: 48 nM

CC(C)(C)OC(=O)N1CCc2c(C(=O)NN3CCCCC3)nn(-c3ccc(Cl)cc3Cl)c2/C1=C\c1ccc(F)cc1 [Cpd 3, (7E)-1-(2,4-dichloro-phenyl)-7-(4-fluoro-benzylidene)-3-(piperidin-1-ylcarbamoyl)-1,4,5,7-tetrahydro-pyrazolo[3,4-c]pyridine-6-carboxylic acid tert-butyl ester]
inhibition at 0.2 µM [1]: 13% | IC50 [2]: 12 nM

COC(=O)N1CCc2c(C(=O)NC(C)c3ccccn3)nn(-c3ccc(Cl)cc3Cl)c2/C1=C\c1ccc(F)cc1 (stereo not shown) [Cpd 5, (7E)-1-(2,4-dichloro-phenyl)-7-(4-fluoro-benzylidene)-3-(1-pyridin-2-yl-ethylcarbamoyl)-1,4,5,7-tetrahydro-pyrazolo[3,4-c]pyridine-6-carboxylic acid methyl ester]
inhibition at 0.2 µM [1]: 17% | IC50 [2]: 33 nM
